The values below come from patent publication US20030143744A1, “Method for the production of cotton somatic embryos” (priority 2000, published 2003).

Holding throughout (assay type): cell-based, Cotton (Gossypium hirsutum L.)
Experiment [1] relates to embryogenic callus / somatic embryos. The experiment is described as follows: Somatic embryo histodifferentiation on differentiation medium. How it is done: Following callus initiation, calluses were sub-cultured, every 4-5 weeks, to callus initiation medium or to basal medium without growth regulators, either solidified or liquid, agitated (under orbital shaking at 110 rpm) or to the surface of filter paper (Whatman™ n° 1) bridges, inserted into macrowell plates (34 mm in diameter, well), containing 3-4 ml of liquid medium to induce somatic embryogenesis. Liquid cultures were maintained by subculture at 2 week intervals. Primary calli containing embryogenic clumps were sub-cultured to somatic embryo differentiation media. A culture medium similar to embryogenesis callus induction medium was used, but modified to contain 10 mM glutamine (Price and Smith 1979 (Planta 145: 305-307.), Cousins et al. 1991 Aust. J. Plant Physiol. 18: 481-494.), 5.4 μM NAA, 2.5 μM iP and solidified with 0.2% gelrite. The effect of abscisic acid (ABA, 0.0, 0.19, 0.38, 1.9 μM) on somatic embryo histodifferentiation was tested.

Experiment [2] has as its system epidermal strips of Coker line 312. Kind of experiment: Callus initiation from epidermal strips of Coker line 312. The conditions noted are these: cytokinin at 4.9 μM, medium further supplemented with NAA (10.7 μM); basal region of bract. How it is done: Following disinfection, bracts were soaked in sterile distilled water, for at least 3 h, to facilitate peeling. Epidermal strips were carefully excised from the lower epidermis, using fine forceps under sterile conditions. The enzymatic treatment of epidermal strips was tested for the removal of all contaminating mesophyll and vascular tissues as follows: strips were immersed for 2-3.5 h, in a filter sterilised solution containing Linsmaier & Skoog salts (1965), Cellulysin (0.2% w/v), Hemicellulase (0.2% w/v), polyvinylpyrrolidone (PVP-40, 0.1% w/v) and pH adjusted to 5.5.
Epidermal fragments (3-10 mm size), with or without enzymatic treatment, were placed in Petri dishes (32 mm in diameter) containing 2 ml semi-solid medium, with the cuticle side either in contact with the medium or upwards.
(§1) A basal medium containing Murashige and Skoog ((1962) Physiol Plant 15: 473-497.) salts, Trolinder & Goodin ((1988a) Plant Cell Tiss Org Cult 12: 31-42.) vitamins and glucose (166.5 mM equivalent to 30 g.l^−1) was used throughout the experiments. For callus initiation, basal medium was supplemented with naphthalene acetic acid (NAA, 2.7, 5.4, 10.7 and 21.5 μM) and isopentenyladenine (iP, 1.3, 2.5 and 4.9 μM). In addition, the effects of thidiazuron (tdz), kinetin (kin) and iP, each at a concentration of 4.9 μM, were tested for their effect on callus morphology and development. Callus initiation was evaluated after 3-6 weeks. Media was used as liquid or solidified (geirite 1.6 g.l^−1 plus 7.9 mM MgCl2). Twenty to thirty epidermal strips were cultured per dish.
The effect of shading of the culture dishes on callus initiation was also evaluated. One or two dishes containing a layer of culture medium (2 ml) were placed on the top of dishes containing the cultures. Dishes were incubated on full light (26.3 μmol. m^−2.s^−1) or under reduced light irradiance, respectively, under shade from 1 dish (21.0 μmol. m^−2.s^−1) or shading from two dishes (15.8 μmol. m^−2.s^−1).

Experiment [3] relates to both Coker lines (312 and 315). The experiment is described as follows: Callus initiation, growth and morphology by growth regulators. How it is done:
as §1
Epidermal strips were excised from the whole bract of Coker line 315 and cultured on medium containing NAA (2.7, 5.4, 10.7 and 21.5 μM) and iP (1.3, 2.5 and 4.9 μM). Two to four independent experiments were carried out and 1300 epidermal strips were used in these studies.
Callus initiation, growth and morphology from both Coker lines (312 and 315) were influenced by the growth regulators in the callus initiation medium. […] In addition, there were no statistical significant differences in callus induction frequency within the remaining range of treatments tested.

`CC1=CC(=O)CC(C)(C)[C@@]1(O)/C=C/C(C)=C\C(=O)O` [ABA, abscisic acid]: the somatic embryo differentiation entry in experiment [1] (ABA 0.0 or 1.9 μM) was “less uniform”; in experiment [1] (ABA 0.19-0.38 μM, after 3-4 weeks), “Synchronised embryo differentiation and improved somatic embryo uniformity”.

The molecule `CC(C)=CCNc1ncnc2nc[nH]c12` [iP, isopentenyladenine] came in with a callus induction in experiment [2] of 36.3±15.8%. In experiment [3] (iP 1.2 μM), the “time to similar size of callus” value is listed as 8 weeks. For the same molecule, in experiment [3] (iP 4.9 μM), the “time to macroscopic calluses” value was 4-5 weeks.

Molecule `c1coc(CNc2ncnc3[nH]cnc23)c1` [Kin, kinetin] had a callus induction in experiment [2] of 8.6±0.7%.

For the molecule `O=C(Nc1ccccc1)Nc1cnns1` [Tdz, thidiazuron], in experiment [2], the callus induction amounted to 31.3±4.5%.
